Assays:
S. aureus Newman [1] = test: fitness (endpoint OD595 vs no drug) (fraction); higher = more growth
Procedure, shortened: (§1)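 Fitness expresses the optical density reached at the stationary-phase transition as a fraction of the robust mean of no-drug control wells. It is capped at 1. Measurements were OD595 every 30 min for 14 h at 37 °C after inoculation of 384-well plates at OD595 0.01 (30 µl, or 55 µl for S. pneumoniae), minus the first reading.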

S. pneumoniae D39V [2] = test: as above
Procedure, shortened: as §1

B. subtilis 168 [3] = test: as above
Procedure, shortened: as §1

S. aureus DSM 20231 [4] = test: as above
Procedure, shortened: as §1

S. aureus Newman [5] = test: Bliss interaction score (quartile over a dose matrix) (fitness difference); higher = more antagonism (negative = synergy)
Procedure, shortened: (§2)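 Each plate was normalised to the robust mean of its own no-drug wells, using OD595 at entry into stationary phase, with values capped at 1. This normalised growth is the fitness value. The Bliss score is the difference between observed and product-expected fitness, with single-drug fitness inferred from the combination data and quartiles taken over technical, biological and donor/recipient replicates.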

S. pneumoniae D39V [6] = test: as above
Procedure, shortened: as §2

B. subtilis 168 [7] = test: as above
Procedure, shortened: as §2

S. aureus DSM 20231 [8] = test: as above
Procedure, shortened: as §2
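Wherever Bliss interaction score (quartile over a dose matrix) is given: first quartile when negative (synergy) and third quartile when positive (antagonism).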

O=C(O[C@@H]1Cc2c(O)cc(O)cc2O[C@@H]1c1cc(O)c(O)c(O)c1)c1cc(O)c(O)c(O)c1 [EGCG] + CN[C@@H]1[C@H](O)[C@H](NC)[C@H]2O[C@@]3(O)C(=O)C[C@@H](C)O[C@H]3O[C@@H]2[C@H]1O [Spectinomycin]
fitness
Details	B. subtilis 168 [3]	S. aureus DSM 20231 [4]	S. aureus Newman [1]	S. pneumoniae D39V [2]
first compound 6.25 µg/mL, partner 2 µg/mL	0.919	–	–	–
first compound 6.25 µg/mL, partner 4 µg/mL	0.959	–	–	–
first compound 6.25 µg/mL, partner 8 µg/mL	0.942	–	–	–
first compound 12.5 µg/mL, partner 4 µg/mL	–	0.716	0.775	0.918
first compound 12.5 µg/mL, partner 8 µg/mL	0.755	0.841	0.825	0.892
first compound 12.5 µg/mL, partner 16 µg/mL	–	0.783	0.783	0.662
first compound 25 µg/mL, partner 4 µg/mL	–	0.795	0.631	0.884
first compound 25 µg/mL, partner 8 µg/mL	0.351	0.829	0.784	0.858
first compound 25 µg/mL, partner 16 µg/mL	–	0.696	–	0.692
first compound 50 µg/mL, partner 4 µg/mL	–	0.762	–	0.928
first compound 50 µg/mL, partner 8 µg/mL	–	0.778	0.748	0.942
first compound 50 µg/mL, partner 16 µg/mL	–	0.724	–	–

fitness, one replicate
Details	first compound 12.5 µg/mL	first compound 25 µg/mL	first compound 50 µg/mL
S. aureus DSM 20231 [4], partner 32 µg/mL	0.732	0.693	0.556
S. aureus DSM 20231 [4], partner 64 µg/mL	0.118	0.0939	0.028
S. aureus Newman [1], partner 32 µg/mL	0.385	0.167	0.0466
S. aureus Newman [1], partner 64 µg/mL	0.0419	0.0446	0.0186

Details	Bliss interaction score
B. subtilis 168 [7]	-0.0513
S. aureus DSM 20231 [8]	-0.0655
S. aureus Newman [5]	-0.0777
S. pneumoniae D39V [6]	-0.0456

O=C(O[C@@H]1Cc2c(O)cc(O)cc2O[C@@H]1c1cc(O)c(O)c(O)c1)c1cc(O)c(O)c(O)c1 [EGCG] + COc1c(N2C[C@@H]3CCCN[C@@H]3C2)c(F)cc2c(=O)c(C(=O)O)cn(C3CC3)c12 [Moxifloxacin]
fitness
Details	first compound 6.25 µg/mL	first compound 12.5 µg/mL	first compound 25 µg/mL	first compound 50 µg/mL
B. subtilis 168 [3], partner 0.0312 µg/mL	0.0635	0.316	0.136	–
B. subtilis 168 [3], partner 0.0625 µg/mL	0.0647	0.0486	0.0468	–
B. subtilis 168 [3], partner 0.125 µg/mL	0.0455	0.0337	0.032	–
B. subtilis 168 [3], partner 2 µg/mL	0.0355	0.0567	0.0285	–
B. subtilis 168 [3], partner 4 µg/mL	0.0375	0.028	0.0104	–
B. subtilis 168 [3], partner 8 µg/mL	0.0396	0.0267	0.0587	–
S. aureus DSM 20231 [4], partner 0.0075 µg/mL	–	0.686	0.605	0.629
S. aureus DSM 20231 [4], partner 0.015 µg/mL	–	0.615	0.628	0.594
S. aureus DSM 20231 [4], partner 0.03 µg/mL	–	0.53	0.554	–
S. aureus Newman [1], partner 0.0075 µg/mL	–	0.704	0.695	–
S. aureus Newman [1], partner 0.015 µg/mL	–	–	–	0.582
S. aureus Newman [1], partner 0.03 µg/mL	–	0.3	–	0.0803
S. pneumoniae D39V [2], partner 0.005 µg/mL	–	0.942	0.947	0.973
S. pneumoniae D39V [2], partner 0.01 µg/mL	–	0.966	0.973	0.989
S. pneumoniae D39V [2], partner 0.02 µg/mL	–	0.918	0.933	0.931
S. pneumoniae D39V [2], partner 0.0312 µg/mL	–	0.265	0.152	0.499
S. pneumoniae D39V [2], partner 0.0625 µg/mL	–	0.0738	0.0517	0.944
S. pneumoniae D39V [2], partner 0.125 µg/mL	–	0.0322	0.0297	0.69

fitness, S. aureus DSM 20231 [4], one replicate
Details	first compound 12.5 µg/mL	first compound 25 µg/mL	first compound 50 µg/mL
partner 0.06 µg/mL	0.636	0.584	0.607
partner 0.12 µg/mL	0.537	0.495	0.506

Details	Bliss interaction score
B. subtilis 168 [7]	0.04
S. aureus DSM 20231 [8]	-0.0635
S. aureus Newman [5]	0.103
S. pneumoniae D39V [6]	-0.0486

O=C(O[C@@H]1Cc2c(O)cc(O)cc2O[C@@H]1c1cc(O)c(O)c(O)c1)c1cc(O)c(O)c(O)c1 [EGCG] + COc1ccc(C[C@H](N)C(=O)N[C@H]2[C@@H](O)[C@H](n3cnc4c(N(C)C)ncnc43)O[C@@H]2CO)cc1 [Puromycin]
fitness
Details	first compound 6.25 µg/mL	first compound 12.5 µg/mL	first compound 25 µg/mL	first compound 50 µg/mL
B. subtilis 168 [3], partner 0.39 µg/mL	0.91	–	–	–
B. subtilis 168 [3], partner 0.78 µg/mL	0.953	–	–	–
B. subtilis 168 [3], partner 1.56 µg/mL	0.885	–	–	–
S. aureus DSM 20231 [4], partner 0.39 µg/mL	–	0.908	0.842	–
S. aureus DSM 20231 [4], partner 0.78 µg/mL	–	0.888	0.812	0.845
S. aureus DSM 20231 [4], partner 1.56 µg/mL	–	0.864	0.846	0.777
S. aureus Newman [1], partner 0.39 µg/mL	–	0.802	0.779	0.657
S. aureus Newman [1], partner 0.78 µg/mL	–	0.809	0.789	–
S. aureus Newman [1], partner 1.56 µg/mL	–	0.846	0.787	–
S. pneumoniae D39V [2], partner 1 µg/mL	–	0.949	–	0.965
S. pneumoniae D39V [2], partner 2 µg/mL	–	0.895	0.917	0.91
S. pneumoniae D39V [2], partner 4 µg/mL	–	–	0.384	–

fitness, S. aureus DSM 20231 [4], one replicate
Details	first compound 12.5 µg/mL	first compound 25 µg/mL	first compound 50 µg/mL
partner 3.12 µg/mL	0.846	0.945	0.676
partner 6.24 µg/mL	0.745	0.527	0.172

Details	Bliss interaction score
B. subtilis 168 [7]	-0.0503
S. aureus DSM 20231 [8]	0.09
S. aureus Newman [5]	0.0755
S. pneumoniae D39V [6]	0.0916

O=C(O[C@@H]1Cc2c(O)cc(O)cc2O[C@@H]1c1cc(O)c(O)c(O)c1)c1cc(O)c(O)c(O)c1 [EGCG] + C[C@@H]1O[C@@H]1P(=O)(O)O [Fosfomycin]
fitness
Details	first compound 6.25 µg/mL	first compound 12.5 µg/mL	first compound 25 µg/mL	first compound 50 µg/mL
B. subtilis 168 [3], partner 1.562 µg/mL	0.682	–	–	–
B. subtilis 168 [3], partner 3.124 µg/mL	0.562	–	0.396	–
B. subtilis 168 [3], partner 6.248 µg/mL	0.448	0.439	0.25	–
S. aureus DSM 20231 [4], partner 0.781 µg/mL	–	0.583	0.541	0.402
S. aureus DSM 20231 [4], partner 1.562 µg/mL	–	0.459	0.465	–
S. aureus DSM 20231 [4], partner 3.124 µg/mL	–	0.416	0.399	0.23
S. aureus Newman [1], partner 0.781 µg/mL	–	0.494	0.573	0.548
S. aureus Newman [1], partner 1.562 µg/mL	–	0.542	0.502	0.48
S. aureus Newman [1], partner 3.124 µg/mL	–	0.251	0.219	0.185
S. pneumoniae D39V [2], partner 1.25 µg/mL	–	0.965	0.913	0.969
S. pneumoniae D39V [2], partner 2.5 µg/mL	–	0.948	0.936	0.856
S. pneumoniae D39V [2], partner 5 µg/mL	–	0.774	0.796	0.854

Details	Bliss interaction score
B. subtilis 168 [7]	0.144
S. aureus DSM 20231 [8]	-0.113
S. aureus Newman [5]	0.101
S. pneumoniae D39V [6]	0.0738

O=C(O[C@@H]1Cc2c(O)cc(O)cc2O[C@@H]1c1cc(O)c(O)c(O)c1)c1cc(O)c(O)c(O)c1 [EGCG] + C[n+]1ccc(-c2cc[n+](C)cc2)cc1 [Paraquat]
fitness
Details	first compound 6.25 µg/mL	first compound 12.5 µg/mL	first compound 25 µg/mL	first compound 50 µg/mL
B. subtilis 168 [3], partner 1.25 µg/mL	0.912	–	–	–
B. subtilis 168 [3], partner 2.5 µg/mL	0.918	–	–	–
B. subtilis 168 [3], partner 5 µg/mL	0.836	0.691	–	–
S. aureus DSM 20231 [4], partner 1.25 µg/mL	–	0.792	0.774	–
S. aureus DSM 20231 [4], partner 2.5 µg/mL	–	0.767	0.827	0.609
S. aureus DSM 20231 [4], partner 5 µg/mL	–	0.757	0.733	0.56
S. aureus Newman [1], partner 1.25 µg/mL	–	0.709	0.579	–
S. aureus Newman [1], partner 2.5 µg/mL	–	0.691	0.812	–
S. aureus Newman [1], partner 5 µg/mL	–	–	0.796	0.787
S. pneumoniae D39V [2], partner 1.5 µg/mL	–	0.953	≥ 1	0.952
S. pneumoniae D39V [2], partner 3 µg/mL	–	0.971	0.999	0.839
S. pneumoniae D39V [2], partner 6 µg/mL	–	0.91	≥ 1	≥ 1

Details	Bliss interaction score
B. subtilis 168 [7]	0.0809
S. aureus DSM 20231 [8]	-0.0973
S. aureus Newman [5]	-0.052
S. pneumoniae D39V [6]	0.0566

From the supplement of paper PMC10627819
